Laboratory results from patent publication EP4707280A1, “1,4-CINEOLE DERIVATIVE AND INTERMEDIATE THEREOF, HERBICIDE CONTAINING SAID DERIVATIVE AS ACTIVE INGREDIENT, METHOD FOR USING HERBICIDE, AND METHOD FOR PREPARING AGROCHEMICAL COMPOSITION” (HOKKO CHEMICAL INDUSTRY CO., LTD., priority 2023, dated 2024).

Legend:
Assay type in all cases: in vivo
[1] = system: Echinochloa crus-galli var. formosensis; test: Test Example 1: herbicidal effect test by soil application in paddy rice; conditions: 120 g active ingredient per 10 ares, applied immediately after sowing, flooded pots, 14 days after application; for pest or weed control at 1200 g/ha: Echinochloa crus-galli, soil, 336 h, read-out: weed inhibition rate
Outline: (§1)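 Paddy soil in Wagner pots (1/10,000 acre), fertilized and puddled; 30 seeds per species sown at 0–1 cm, flooded to ~3 cm, greenhouse. Water-diluted emulsifiable concentrate dropped onto flooded pots right after sowing at 120 g active ingredient per 10 ares.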

Scirpus juncoides = test: as above; conditions: 120 g active ingredient per 10 ares, applied immediately after sowing, flooded pots, 14 days after application; for pest or weed control at 1200 g/ha: Schoenoplectiella juncoides, soil, 336 h, read-out: weed inhibition rate
Outline: as §1

Monochoria vaginalis [2] = test: as above; conditions: 120 g active ingredient per 10 ares, applied immediately after sowing, flooded pots, 14 days after application; for pest or weed control at 1200 g/ha: Pontederia vaginalis, soil, 336 h, read-out: weed inhibition rate
Outline: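 Pre-emergence test in puddled, flooded paddy soil (about 3 cm water), 30 seeds per weed sown at 0–1 cm depth in a glass greenhouse. Emulsifiable concentrate diluted in water and dropped onto the pots straight after sowing at 120 g a.i. per 10 ares. Weed inhibition (%) scored at 14 days, in duplicate.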

[3] = system: Echinochloa crus-galli var. formosensis; test: Test Example 5: herbicidal effect test by soil application in paddy rice (low dose); conditions: Echinochloa crus-galli, soil, 336 h; 7.5 g per 10 ares; applied immediately after sowing, flooded pots; 14 days after application; read-out: weed inhibition rate
Outline: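 Flooded-paddy soil application at low dose (7.5 g a.i. per 10 ares), given by dropper as diluted emulsifiable concentrate directly after sowing weeds 0–1 cm deep. Effect evaluated after 14 days in duplicate.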

Monochoria vaginalis [4] = test: Test Example 6: herbicidal effect test by application during growth period of paddy rice (low dose); conditions: Pontederia vaginalis; 7.5 g per 10 ares; applied seven days after sowing, flooded pots; 14 days after application; read-out: weed inhibition rate
Outline: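 Paddy soil in flooded Wagner pots (about 3 cm water), weeds sown at 0–1 cm, 30 seeds each, grown in a glass greenhouse. Seven days after sowing, water-diluted emulsifiable concentrate was dropped into the water at 7.5 g active ingredient per 10 ares. Weed inhibition rate (%) was scored 14 days after application, in duplicate.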

Digitaria ciliaris [5] = test: Test Example 7: herbicidal effect test by soil application in upland field (low dose); conditions: Digitaria ciliaris, 7.5 g per 10 ares, sprayed one day after sowing, 14 days after application, read-out: weed inhibition rate
Outline: (§2)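 Upland soil (alluvial loam) pots, seeds mixed into top 1 cm layer → EC formulation diluted with water, sprayed onto soil 1 d post-sowing, 100 L/10 a → 7.5 g a.i./10 a → inhibition (%) scored at 14 d, n=2.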

Echinochloa crus-galli = test: as above; conditions: Echinochloa crus-galli, 7.5 g per 10 ares, sprayed one day after sowing, 14 days after application, read-out: weed inhibition rate
Outline: as §2

Digitaria ciliaris [6] = test: Test Example 8: herbicidal effect test by stem and leaf treatment in upland field (low dose); conditions: Digitaria ciliaris; 7.5 g per 10 ares; sprayed seven days after sowing, upland soil; 14 days after application; read-out: weed inhibition rate
Amaranthus viridis = test: Test Example 3: herbicidal effect test by soil application in upland field; conditions: Amaranthus viridis, 120 g per 10 ares, sprayed one day after sowing, 14 days after application, read-out: weed inhibition rate
Outline: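 Pre-emergence test: seeds mixed into top 1 cm of alluvial loam upland soil in pots; emulsifiable concentrate diluted in water sprayed on soil one day after sowing at 100 L/10 a, 120 g a.i./10 a. Weed inhibition rate (%) scored at 14 days, in duplicate.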

CC(C)[C@]12C[C@@H](OCc3ccccc3F)[C@](C)(CC1C)O2 (stereo partly drawn) [1-92, (1S,2R,4R)-2-((2-fluorobenzyl)oxy)-4-isopropyl-1,5-dimethyl-7-oxabicyclo[2.2.1]heptane]
≥ 80%: pest or weed control at 1200 g/ha [1] | pest or weed control at 1200 g/ha (Scirpus juncoides) | pest or weed control at 1200 g/ha (Monochoria vaginalis [2]) | inhibition at 75 g/ha [3] | inhibition at 75 g/ha (Monochoria vaginalis [4]) | inhibition at 75 g/ha (Digitaria ciliaris [5]) | inhibition at 75 g/ha (Echinochloa crus-galli) | inhibition at 75 g/ha (Digitaria ciliaris [6])

CC(C)[C@]12C[C@@H](OCc3ccccc3F)[C@](C)(C[C@H]1C)O2 [1-94, (1S,2R,4R,5R)-2-[(2-fluorophenyl)methoxy]-1,5-dimethyl-4-isopropyl-7-oxabicyclo[2.2.1]heptane]
≥ 80%: pest or weed control at 1200 g/ha [1] | pest or weed control at 1200 g/ha (Scirpus juncoides) | pest or weed control at 1200 g/ha (Monochoria vaginalis [2]) | inhibition at 75 g/ha [3] | inhibition at 75 g/ha (Monochoria vaginalis [4]) | inhibition at 75 g/ha (Digitaria ciliaris [5]) | inhibition at 75 g/ha (Echinochloa crus-galli) | inhibition at 75 g/ha (Digitaria ciliaris [6])

CCOC(C)O[C@H]1C[C@]2(C)O[C@@]1(C(C)C)C[C@H]2OCc1ccccc1C (stereo partly drawn) [1-208, (1R,2S,4S,5R)-2-(1-ethoxyethoxy)-1-isopropyl-4-methyl-5-((2-methylbenzyl)oxy)-7-oxabicyclo[2.2.1]heptane]
≥ 80%: pest or weed control at 1200 g/ha [1] | pest or weed control at 1200 g/ha (Scirpus juncoides) | pest or weed control at 1200 g/ha (Monochoria vaginalis [2]) | inhibition at 1200 g/ha (Amaranthus viridis) | inhibition at 75 g/ha [3] | inhibition at 75 g/ha (Digitaria ciliaris [5]) | inhibition at 75 g/ha (Echinochloa crus-galli)

CCOC(C)O[C@H]1C[C@]2(C)O[C@@]1(C(C)C)C[C@H]2OCc1c(F)cccc1F (stereo partly drawn) [1-223, (1S,2R,4R,5S)-2-((2,6-difluorobenzyl)oxy)-5-(1-ethoxyethoxy)-4-isopropyl-1-methyl-7-oxabicyclo[2.2.1]heptane]
≥ 80%: pest or weed control at 1200 g/ha [1] | pest or weed control at 1200 g/ha (Scirpus juncoides) | pest or weed control at 1200 g/ha (Monochoria vaginalis [2]) | inhibition at 1200 g/ha (Amaranthus viridis) | inhibition at 75 g/ha [3] | inhibition at 75 g/ha (Digitaria ciliaris [5]) | inhibition at 75 g/ha (Echinochloa crus-galli)

CC(C)=CCO[C@@H]1C[C@]2(C(C)C)O[C@@]1(C)C[C@@H]2Br [1-672, (1S,2R,4R,5S)-5-bromo-1-methyl-2-(3-methylbut-2-enoxy)-4-isopropyl-7-oxabicyclo[2.2.1]heptane]
≥ 80%: pest or weed control at 1200 g/ha [1] | pest or weed control at 1200 g/ha (Monochoria vaginalis [2]) | inhibition at 1200 g/ha (Amaranthus viridis) | inhibition at 75 g/ha [3] | inhibition at 75 g/ha (Monochoria vaginalis [4]) | inhibition at 75 g/ha (Digitaria ciliaris [6])

CC(C)[C@]12C[C@@H](OCc3cccc(F)c3)[C@](C)(C[C@@H]1Br)O2 [1-690, (1S,2R,4R,5S)-5-bromo-2-[(3-fluorophenyl)methoxy]-1-methyl-4-isopropyl-7-oxabicyclo[2.2.1]heptane]
≥ 80%: pest or weed control at 1200 g/ha [1] | pest or weed control at 1200 g/ha (Scirpus juncoides) | pest or weed control at 1200 g/ha (Monochoria vaginalis [2]) | inhibition at 75 g/ha [3] | inhibition at 75 g/ha (Monochoria vaginalis [4]) | inhibition at 75 g/ha (Digitaria ciliaris [5]) | inhibition at 75 g/ha (Echinochloa crus-galli) | inhibition at 75 g/ha (Digitaria ciliaris [6])

CC(C)[C@]12C[C@@H](OCc3ccccc3C#N)[C@](C)(C[C@@H]1Br)O2 [1-703, 2-[[(1S,2R,4R,5S)-5-bromo-1-methyl-4-isopropyl-7-oxabicyclo[2.2.1]heptan-2-yl]oxymethyl]benzonitrile]
≥ 80%: pest or weed control at 1200 g/ha [1] | pest or weed control at 1200 g/ha (Scirpus juncoides) | pest or weed control at 1200 g/ha (Monochoria vaginalis [2]) | inhibition at 1200 g/ha (Amaranthus viridis) | inhibition at 75 g/ha [3] | inhibition at 75 g/ha (Echinochloa crus-galli) | inhibition at 75 g/ha (Digitaria ciliaris [6])

CC(C)[C@]12C[C@@H](OCc3c(F)cccc3Cl)[C@](C)(C[C@@H]1Br)O2 [1-713, (1S,2R,4R,5S)-5-bromo-2-[(2-chloro-6-fluorophenyl)methoxy]-1-methyl-4-isopropyl-7-oxabicyclo[2.2.1]heptane]
≥ 80%: pest or weed control at 1200 g/ha [1] | pest or weed control at 1200 g/ha (Scirpus juncoides) | pest or weed control at 1200 g/ha (Monochoria vaginalis [2]) | inhibition at 75 g/ha [3] | inhibition at 75 g/ha (Monochoria vaginalis [4]) | inhibition at 75 g/ha (Digitaria ciliaris [5]) | inhibition at 75 g/ha (Echinochloa crus-galli) | inhibition at 75 g/ha (Digitaria ciliaris [6])

CC(C)[C@]12C[C@@H](OCc3cccs3)[C@](C)(C[C@@H]1Br)O2 [1-721, (1S,2R,4R,5S)-5-bromo-1-methyl-4-isopropyl-2-(thiophen-2-ylmethoxy)-7-oxabicyclo[2.2.1]heptane]
≥ 80%: pest or weed control at 1200 g/ha [1] | pest or weed control at 1200 g/ha (Scirpus juncoides) | pest or weed control at 1200 g/ha (Monochoria vaginalis [2]) | inhibition at 75 g/ha [3] | inhibition at 75 g/ha (Monochoria vaginalis [4]) | inhibition at 75 g/ha (Digitaria ciliaris [5]) | inhibition at 75 g/ha (Echinochloa crus-galli) | inhibition at 75 g/ha (Digitaria ciliaris [6])

CC(C)[C@]12C[C@@H](OCc3c(F)cccc3Br)[C@](C)(C[C@@H]1Br)O2 [1-1600, (1S,2R,4R,5S)-5-bromo-2-[(2-bromo-6-fluorophenyl)methoxy]-1-methyl-4-isopropyl-7-oxabicyclo[2.2.1]heptane]
≥ 80%: pest or weed control at 1200 g/ha [1] | pest or weed control at 1200 g/ha (Scirpus juncoides) | pest or weed control at 1200 g/ha (Monochoria vaginalis [2]) | inhibition at 75 g/ha [3] | inhibition at 75 g/ha (Monochoria vaginalis [4]) | inhibition at 75 g/ha (Digitaria ciliaris [5]) | inhibition at 75 g/ha (Echinochloa crus-galli) | inhibition at 75 g/ha (Digitaria ciliaris [6])

CCCO[C@H]1C[C@]2(C)O[C@@]1(C(C)C)C[C@H]2OCc1ccccc1F [1-1604, (1S,2R,4R,SS)-2-[(2-fluorophenyl)methoxy]-1-methyl-4-isopropyl-5-propoxy-7-oxabicyclo[2.2.1]heptane]
≥ 80%: weed inhibition rate [1] | weed inhibition rate (Scirpus juncoides) | weed inhibition rate (Monochoria vaginalis [2]) | inhibition at 75 g/ha [3] | inhibition at 75 g/ha (Monochoria vaginalis [4]) | inhibition at 75 g/ha (Digitaria ciliaris [5]) | inhibition at 75 g/ha (Echinochloa crus-galli) | inhibition at 75 g/ha (Digitaria ciliaris [6])

CC(C)[C@]12C[C@@H](OCc3ccccc3Br)[C@](C)(CC1=O)O2 [2-13, (1R,4S,5R)-5-((2-bromobenzyl)oxy)-1-isopropyl-4-methyl-7-oxabicyclo[2.2.1]heptan-2-one]
≥ 80%: pest or weed control at 1200 g/ha [1] | pest or weed control at 1200 g/ha (Scirpus juncoides) | pest or weed control at 1200 g/ha (Monochoria vaginalis [2]) | inhibition at 75 g/ha [3] | inhibition at 75 g/ha (Monochoria vaginalis [4]) | inhibition at 75 g/ha (Digitaria ciliaris [5]) | inhibition at 75 g/ha (Echinochloa crus-galli) | inhibition at 75 g/ha (Digitaria ciliaris [6])

CC(C)[C@]12C[C@@H](OCc3c(F)cccc3Cl)[C@](C)(CC1=O)O2 [2-28, (1R,4S,5R)-5-((2-chloro-6-fluorobenzyl)oxy)-1-isopropyl-4-methyl-7-oxabicyclo[2.2.1]heptan-2-one]
≥ 80%: pest or weed control at 1200 g/ha [1] | pest or weed control at 1200 g/ha (Scirpus juncoides) | pest or weed control at 1200 g/ha (Monochoria vaginalis [2]) | inhibition at 75 g/ha [3] | inhibition at 75 g/ha (Monochoria vaginalis [4]) | inhibition at 75 g/ha (Digitaria ciliaris [5]) | inhibition at 75 g/ha (Echinochloa crus-galli) | inhibition at 75 g/ha (Digitaria ciliaris [6])

Cc1ccccc1CO[C@@H]1C[C@]2(C(C)C)O[C@@]1(C)C/C2=N\O [2-191, (1R,4S,5R,E)-1-isopropyl-4-methyl-5-((2-methylbenzyl)oxy)-7-oxabicyclo[2.2.1]heptan-2-one oxime]
≥ 80%: pest or weed control at 1200 g/ha [1] | pest or weed control at 1200 g/ha (Scirpus juncoides) | pest or weed control at 1200 g/ha (Monochoria vaginalis [2]) | inhibition at 75 g/ha [3] | inhibition at 75 g/ha (Monochoria vaginalis [4]) | inhibition at 75 g/ha (Digitaria ciliaris [5]) | inhibition at 75 g/ha (Echinochloa crus-galli) | inhibition at 75 g/ha (Digitaria ciliaris [6])

CC(C)[C@]12C[C@@H](OCc3cccc(F)c3)[C@](C)(CC1=O)O2 [2-351, (1R,4S,5R)-5-((3-fluorobenzyl)oxy)-1-isopropyl-4-methyl-7-oxabicyclo[2.2.1]heptan-2-one]
≥ 80%: pest or weed control at 1200 g/ha [1] | pest or weed control at 1200 g/ha (Scirpus juncoides) | pest or weed control at 1200 g/ha (Monochoria vaginalis [2]) | inhibition at 1200 g/ha (Amaranthus viridis) | inhibition at 75 g/ha [3] | inhibition at 75 g/ha (Echinochloa crus-galli) | inhibition at 75 g/ha (Digitaria ciliaris [6])
